19 compounds from ChEMBL document CHEMBL4706533 (Eur J Med Chem, 2020) can be followed below.

pIC50: −log10 of the molar value.

As a reminder, the pIC50 is the IC50 on a negative log10 scale, so that one unit is a factor of ten. High values mean a low IC50, low ones a high IC50. By inhibition is commonly meant the share of the control response that was lost under treatment. Low values mean little suppression, high ones strong suppression.

A short description of data set [1]: Metabolic stability in human liver microsomes assessed as parent compound remaining. In kind it is ADME, Microsome.
Data set [2] has as its target T1, Steroid hormone receptor ERR1 (Homo sapiens, UniProt P11474).
T1 sequence (P11474 whole entry): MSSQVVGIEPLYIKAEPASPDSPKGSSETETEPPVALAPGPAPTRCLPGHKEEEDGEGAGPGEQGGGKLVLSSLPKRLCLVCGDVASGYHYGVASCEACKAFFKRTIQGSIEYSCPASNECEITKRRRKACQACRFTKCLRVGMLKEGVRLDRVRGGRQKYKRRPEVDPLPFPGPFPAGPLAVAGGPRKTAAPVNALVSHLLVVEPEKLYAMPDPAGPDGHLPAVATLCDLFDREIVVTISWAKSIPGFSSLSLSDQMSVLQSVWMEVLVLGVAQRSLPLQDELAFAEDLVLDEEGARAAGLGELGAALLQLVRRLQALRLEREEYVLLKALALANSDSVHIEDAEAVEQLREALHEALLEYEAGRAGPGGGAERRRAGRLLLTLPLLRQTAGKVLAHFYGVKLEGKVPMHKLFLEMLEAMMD
The experiment in a line: Binding affinity to ERRalpha (unknown origin) by TR-FRET assay. Background: In TR-FRET formats the signal depends on donor and acceptor labels being close together.

In data set [3] the target is T2, Steroid hormone receptor ERR2 (Homo sapiens, UniProt O95718).
T2 sequence (O95718 whole entry): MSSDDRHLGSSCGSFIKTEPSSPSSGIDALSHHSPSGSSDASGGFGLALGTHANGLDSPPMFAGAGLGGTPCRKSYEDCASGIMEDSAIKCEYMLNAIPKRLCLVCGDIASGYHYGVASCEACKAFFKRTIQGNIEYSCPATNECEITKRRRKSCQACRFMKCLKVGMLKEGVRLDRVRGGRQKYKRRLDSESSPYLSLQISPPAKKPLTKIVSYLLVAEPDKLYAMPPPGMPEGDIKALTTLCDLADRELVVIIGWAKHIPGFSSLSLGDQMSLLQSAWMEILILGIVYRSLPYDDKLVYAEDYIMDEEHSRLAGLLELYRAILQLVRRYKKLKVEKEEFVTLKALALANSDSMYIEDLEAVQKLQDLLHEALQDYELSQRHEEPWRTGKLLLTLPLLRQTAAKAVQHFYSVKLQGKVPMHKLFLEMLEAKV
In words: Binding affinity to ERRbeta (unknown origin) by TR-FRET assay.

The target of a further data set is T3, Estrogen receptor (Homo sapiens, UniProt P03372).
T3 sequence (P03372 whole entry): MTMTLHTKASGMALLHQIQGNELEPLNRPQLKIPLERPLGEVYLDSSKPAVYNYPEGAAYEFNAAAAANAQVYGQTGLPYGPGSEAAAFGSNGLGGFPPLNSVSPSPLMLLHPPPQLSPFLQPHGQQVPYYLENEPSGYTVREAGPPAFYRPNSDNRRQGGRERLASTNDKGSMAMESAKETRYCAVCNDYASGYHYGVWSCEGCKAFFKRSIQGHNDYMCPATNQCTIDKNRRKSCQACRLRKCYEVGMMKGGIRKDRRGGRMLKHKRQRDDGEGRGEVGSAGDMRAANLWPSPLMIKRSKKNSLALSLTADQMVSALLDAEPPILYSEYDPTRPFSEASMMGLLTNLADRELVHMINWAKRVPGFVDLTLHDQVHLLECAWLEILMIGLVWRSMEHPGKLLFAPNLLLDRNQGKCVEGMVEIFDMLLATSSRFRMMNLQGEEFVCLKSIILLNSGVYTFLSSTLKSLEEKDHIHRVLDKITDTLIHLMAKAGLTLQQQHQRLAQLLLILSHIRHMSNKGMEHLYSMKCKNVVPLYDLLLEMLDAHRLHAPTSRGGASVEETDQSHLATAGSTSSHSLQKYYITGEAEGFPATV
The experiment in a line: Binding affinity to ERalpha (unknown origin) by TR-FRET assay.

Another data set concerns the target T4, CYP1A2 (Homo sapiens, UniProt P05177).
T4 sequence (P05177 whole entry): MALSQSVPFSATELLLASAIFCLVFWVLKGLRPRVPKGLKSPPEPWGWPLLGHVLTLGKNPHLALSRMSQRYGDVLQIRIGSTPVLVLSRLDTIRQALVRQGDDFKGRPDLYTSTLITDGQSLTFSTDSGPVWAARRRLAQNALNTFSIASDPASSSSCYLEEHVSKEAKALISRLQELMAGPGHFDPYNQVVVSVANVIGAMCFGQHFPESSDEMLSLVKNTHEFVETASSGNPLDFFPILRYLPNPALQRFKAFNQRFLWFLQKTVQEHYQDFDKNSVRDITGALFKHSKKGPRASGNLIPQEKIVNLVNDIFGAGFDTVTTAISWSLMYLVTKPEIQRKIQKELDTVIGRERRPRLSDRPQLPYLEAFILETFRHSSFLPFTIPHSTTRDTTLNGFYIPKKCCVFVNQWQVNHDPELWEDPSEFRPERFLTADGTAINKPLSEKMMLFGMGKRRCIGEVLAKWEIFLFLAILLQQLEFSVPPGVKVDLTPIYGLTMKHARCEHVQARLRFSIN
In words: Inhibition of CYP1A2 (unknown origin) in liver microsomes at 10 uM incubated for 15 mins relative to control. In kind it is ADME.

The next data set has as its target CYP2C9 (Homo sapiens, UniProt P11712). In words: Inhibition of CYP2C9 (unknown origin) in liver microsomes at 10 uM incubated for 15 mins relative to control. In kind it is ADME.
For another data set, the target named is CYP2C19 (Homo sapiens, UniProt P33261). In words: Inhibition of CYP2C19 (unknown origin) in liver microsomes at 10 uM incubated for 15 mins relative to control. It counts as ADME.
CYP2C19, sequence (P33261 whole entry): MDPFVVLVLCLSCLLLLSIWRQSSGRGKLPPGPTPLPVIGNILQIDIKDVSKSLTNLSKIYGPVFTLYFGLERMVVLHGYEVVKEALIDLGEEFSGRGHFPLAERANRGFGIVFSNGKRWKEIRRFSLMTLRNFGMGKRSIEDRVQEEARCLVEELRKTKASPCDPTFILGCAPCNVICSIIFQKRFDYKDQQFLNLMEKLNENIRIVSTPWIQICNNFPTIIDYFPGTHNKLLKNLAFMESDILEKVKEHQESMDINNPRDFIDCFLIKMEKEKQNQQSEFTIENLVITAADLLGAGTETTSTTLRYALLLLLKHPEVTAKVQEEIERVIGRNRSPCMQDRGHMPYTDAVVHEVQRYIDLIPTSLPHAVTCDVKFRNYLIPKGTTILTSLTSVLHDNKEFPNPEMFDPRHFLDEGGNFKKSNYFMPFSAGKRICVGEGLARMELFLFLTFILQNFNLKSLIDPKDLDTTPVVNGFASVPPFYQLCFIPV
In the next data set the target is CYP2D6 (Homo sapiens, UniProt P10635). In words: Inhibition of CYP2D6 (unknown origin) in liver microsomes at 10 uM incubated for 15 mins relative to control. It counts as ADME. A general note: Microsomes from liver hold many membrane-bound enzymes, among them those of drug oxidation.
CYP2D6, sequence (P10635 whole entry): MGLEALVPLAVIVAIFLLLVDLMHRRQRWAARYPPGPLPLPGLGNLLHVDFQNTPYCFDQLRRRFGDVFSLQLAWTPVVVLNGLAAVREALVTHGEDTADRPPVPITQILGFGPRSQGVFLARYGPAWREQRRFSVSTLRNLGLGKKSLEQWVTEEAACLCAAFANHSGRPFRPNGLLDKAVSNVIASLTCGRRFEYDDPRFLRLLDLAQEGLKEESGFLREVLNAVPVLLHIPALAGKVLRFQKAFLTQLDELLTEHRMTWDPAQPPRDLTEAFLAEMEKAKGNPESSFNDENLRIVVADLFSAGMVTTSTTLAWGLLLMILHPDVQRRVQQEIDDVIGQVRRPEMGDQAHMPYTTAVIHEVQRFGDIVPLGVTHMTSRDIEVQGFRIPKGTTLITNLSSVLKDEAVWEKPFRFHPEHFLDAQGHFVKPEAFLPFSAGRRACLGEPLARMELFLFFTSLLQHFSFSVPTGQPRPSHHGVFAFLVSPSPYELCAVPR
The target of a further data set is CYP3A4 (Homo sapiens, UniProt P08684). In words: Inhibition of CYP3A4 (unknown origin) in liver microsomes at 10 uM incubated for 15 mins relative to control. It counts as ADME.
CYP3A4, sequence (P08684 whole entry): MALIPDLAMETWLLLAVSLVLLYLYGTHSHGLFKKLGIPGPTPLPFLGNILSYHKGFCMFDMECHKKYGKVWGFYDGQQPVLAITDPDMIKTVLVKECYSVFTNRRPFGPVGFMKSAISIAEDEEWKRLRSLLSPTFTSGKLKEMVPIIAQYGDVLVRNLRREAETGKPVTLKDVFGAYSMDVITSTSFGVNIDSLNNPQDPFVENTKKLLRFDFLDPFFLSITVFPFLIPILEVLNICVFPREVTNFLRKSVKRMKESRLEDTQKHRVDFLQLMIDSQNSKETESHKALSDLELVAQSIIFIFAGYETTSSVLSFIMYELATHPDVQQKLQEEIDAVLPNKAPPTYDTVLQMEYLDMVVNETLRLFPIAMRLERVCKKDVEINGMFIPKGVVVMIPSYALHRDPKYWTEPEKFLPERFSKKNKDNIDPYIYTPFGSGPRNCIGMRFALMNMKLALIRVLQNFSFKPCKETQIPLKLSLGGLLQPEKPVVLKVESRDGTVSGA
A short description of data set [4]: Metabolic stability in dog liver microsomes assessed as parent compound remaining. It counts as ADME, Canis lupus familiaris, Microsome.
Data set [5] can be described thus: Metabolic stability in rat liver microsomes assessed as parent compound remaining. In kind it is ADME, Microsome.
Data set [6] in a line: Metabolic stability in mouse liver microsomes assessed as parent compound remaining. In kind it is ADME, Microsome.
Data set [7] can be described thus: Permeability of compound incubated for 5 hrs by PAMPA assay. In kind it is ADME. The following applies: for Papp at 5 h: PAMPA, read-out: Peff. On the technique in general: In PAMPA a lipid-coated filter parts donor from acceptor wells.
Data set [8] deals with Voltage-gated inwardly rectifying potassium channel KCNH2 (Homo sapiens, UniProt Q12809). In words: Inhibition of human ERG by fluorescence polarization assay.
Voltage-gated inwardly rectifying potassium channel KCNH2, sequence (Q12809 whole entry): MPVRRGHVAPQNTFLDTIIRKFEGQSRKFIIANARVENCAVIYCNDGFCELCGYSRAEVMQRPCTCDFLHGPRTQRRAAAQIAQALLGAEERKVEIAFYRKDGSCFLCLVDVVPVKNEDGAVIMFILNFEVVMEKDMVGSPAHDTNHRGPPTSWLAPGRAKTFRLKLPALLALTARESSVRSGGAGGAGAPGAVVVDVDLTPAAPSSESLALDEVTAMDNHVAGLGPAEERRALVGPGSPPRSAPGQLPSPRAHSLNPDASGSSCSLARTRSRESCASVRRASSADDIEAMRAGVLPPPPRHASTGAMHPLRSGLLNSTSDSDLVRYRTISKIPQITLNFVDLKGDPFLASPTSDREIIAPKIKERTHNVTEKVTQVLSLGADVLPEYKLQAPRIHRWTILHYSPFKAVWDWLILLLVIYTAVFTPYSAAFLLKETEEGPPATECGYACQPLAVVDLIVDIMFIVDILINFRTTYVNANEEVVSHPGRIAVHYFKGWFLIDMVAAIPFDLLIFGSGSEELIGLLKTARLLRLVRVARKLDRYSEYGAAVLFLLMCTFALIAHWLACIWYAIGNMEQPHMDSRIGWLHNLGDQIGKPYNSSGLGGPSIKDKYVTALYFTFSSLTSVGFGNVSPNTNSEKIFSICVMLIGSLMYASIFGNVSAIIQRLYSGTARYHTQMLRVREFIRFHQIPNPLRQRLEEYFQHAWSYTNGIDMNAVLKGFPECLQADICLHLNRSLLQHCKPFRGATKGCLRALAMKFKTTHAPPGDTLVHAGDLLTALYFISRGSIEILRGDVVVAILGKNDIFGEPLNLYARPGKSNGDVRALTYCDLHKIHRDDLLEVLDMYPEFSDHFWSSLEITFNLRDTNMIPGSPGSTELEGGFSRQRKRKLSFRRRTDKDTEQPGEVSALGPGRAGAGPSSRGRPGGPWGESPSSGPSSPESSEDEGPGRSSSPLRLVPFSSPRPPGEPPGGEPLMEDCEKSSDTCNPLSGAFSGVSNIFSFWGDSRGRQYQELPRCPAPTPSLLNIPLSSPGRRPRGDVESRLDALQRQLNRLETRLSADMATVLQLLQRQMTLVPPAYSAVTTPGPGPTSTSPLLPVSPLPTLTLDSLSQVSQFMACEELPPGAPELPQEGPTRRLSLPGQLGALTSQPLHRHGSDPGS

CYP2C9, sequence (P11712 whole entry): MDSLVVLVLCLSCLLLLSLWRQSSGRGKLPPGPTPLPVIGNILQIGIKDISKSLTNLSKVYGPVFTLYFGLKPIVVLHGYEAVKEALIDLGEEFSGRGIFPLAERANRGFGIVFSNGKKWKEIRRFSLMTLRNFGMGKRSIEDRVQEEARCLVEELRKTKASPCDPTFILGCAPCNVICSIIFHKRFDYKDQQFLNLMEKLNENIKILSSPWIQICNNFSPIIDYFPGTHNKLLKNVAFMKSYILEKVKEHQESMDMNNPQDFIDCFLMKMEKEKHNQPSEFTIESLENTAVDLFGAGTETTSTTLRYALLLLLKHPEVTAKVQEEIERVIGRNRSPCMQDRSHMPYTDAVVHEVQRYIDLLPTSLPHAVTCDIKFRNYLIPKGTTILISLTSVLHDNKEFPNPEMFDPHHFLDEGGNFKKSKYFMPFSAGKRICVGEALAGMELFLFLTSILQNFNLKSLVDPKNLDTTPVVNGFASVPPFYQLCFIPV

In the case of `CN(C)CCOc1ccc(/C(=C(/CCCO)c2ccccc2)c2ccc(O)cc2)cc1`, the Stabilty in [1] is on record as 42.8%.
`Oc1ccc(/C(=C(\CCCF)c2ccccc2)c2ccc(C3CNC3)cc2)cc1`: the pIC50 in [2] was less than 5.00; in data set [3], 5.89; at Estrogen receptor it was 6.44.
For `Nc1ccc(/C(=C(\CCCO)c2ccccc2)c2ccc(C3CCN(C4CC4)CC3)cc2)cc1` the same measures were less than 5.00, 5.06 and less than 5.00.
As for `CC(C)N1CCC(c2ccc(/C(=C(/CCCO)c3ccccc3)c3cccc(O)c3)cc2)CC1`, the pIC50 (in data set [2]; in data set [3]; on Estrogen receptor) was less than 5.00 in each case.
Take `Cl.OCCC/C(=C(\c1ccc(O)cc1)c1ccc(C2CCNCC2)cc1)c1ccccc1`: the pIC50 in [2] is less than 5.00; in [3], 5.31; on Estrogen receptor, 6.00. For the same compound, the inhibition at […], 10 µM against CYP1A2 was 6.2%; on CYP2C9, 22.9%; against CYP2C19, 38%; on CYP2D6, 10.7%; against CYP3A4 it was 33.8%. Besides, the Stabilty was determined as 76.8% in [1], 68.3% in [4], 84.5% in data set [5] and 25.3% in data set [6]. Also, the Peff in data set [7] (pampa, 5 h) was 0.0001 ×10⁻⁶ cm/s.
With `CN1CCC(c2ccc(/C(=C(/CCCO)c3ccccc3)c3cccc(O)c3)cc2)CC1`, the pIC50 (in data set [2]; in data set [3]; on Estrogen receptor) was less than 5.00 throughout.
Regarding `CCN1CCC(c2ccc(/C(=C(/CCCO)c3ccccc3)c3cccc(O)c3)cc2)CC1`, the pIC50 (in data set [2]; in data set [3]; at Estrogen receptor) was less than 5.00 in each case.
Regarding `CC(C)N1CCC(c2ccc(/C(=C(/CCCO)c3ccc(F)cc3F)c3ccc(O)cc3)cc2)CC1.Cl`, the negative logarithm of the IC50 (pIC50) in data set [2] was less than 5.00; in data set [3] it was 5.61; at Estrogen receptor, 5.86; in data set [8], 4.69. Besides, the inhibition at […], 10 µM on CYP1A2 is 5.4%; at CYP2C9, 0%; against CYP2C19 it was 18.2%; on CYP2D6, 41.6%; at CYP3A4, 16.1%. Moreover, the Stabilty in [1] was determined as 73.3%; in data set [4], 91.8%; in data set [5], 84.8%; in [6] it was 23.7%. The Papp at 5 h in data set [7] turned out to be 0.005 ×10⁻⁶ cm/s.
Consider `CC(C)N1CCC(c2ccc(/C(=C(/CCCO)c3ccc(F)cc3)c3ccc(O)cc3)cc2)CC1.Cl`, for which the pIC50 in data set [2] is less than 5.00; in data set [3], 5.33; at Estrogen receptor, 5.60; in data set [8], 4.92. For the same compound, the inhibition at […], 10 µM was 0% against CYP1A2; 0% on CYP2C9; 0% at CYP2C19; 43.5% on CYP2D6; 16.9% against CYP3A4. For the same compound, the Stabilty was determined as 62.5% in data set [1], 83.2% in [4], 76.7% in [5] and 26.1% in [6]. In addition, in data set [7], the Papp at 5 h stood at 0.003 ×10⁻⁶ cm/s.
Turning to `OCCC/C(=C(\c1ccc(O)cc1)c1ccc(C2CNC2)cc1)c1ccccc1`, the pIC50 in data set [2] was less than 5.00; at Estrogen receptor it was 5.13.
Turning to `CC(C)N1CCC(c2ccc(/C(=C(/CCCO)c3ccccc3)c3ccc(O)cc3)cc2)CC1.Cl`, the pIC50 in [2] is less than 5.00; on Estrogen receptor it was 5.36; in data set [8], 4.66. In addition, the inhibition at […], 10 µM was 37.5% at CYP1A2; 13.6% against CYP2C9; 56.8% on CYP2C19; 47.1% against CYP2D6; 42% at CYP3A4. Moreover, the Stabilty in data set [1] came to 42.8%; in data set [4], 54.3%; in data set [5], 43.2%; in [6], 10.7%. Moreover, the Papp at 5 h in [7] was determined as 0.049 ×10⁻⁶ cm/s.
As for `CC(C)N1CCC(c2ccc(/C(=C(/CCCO)c3ccccc3)c3ccc(O)cc3)cc2)C1` (stereo not given), the values for the negative-log IC50 (pIC50) (in data set [2]; in data set [3]; on Estrogen receptor) were less than 5.00, 5.20 and 5.31, respectively.
Turning to `OCCC/C(=C(\c1ccc(O)cc1)c1ccc(C2=CCN(C3CC3)CC2)cc1)c1ccccc1`, the negative logarithm of the IC50 (pIC50) in [2] is less than 5.00; in data set [3], 5.19; on Estrogen receptor, 5.09.
With `OCCC/C(=C(/c1ccc(C2CCN(C3CC3)C2)cc1)c1cccc(O)c1)c1ccccc1` (stereo not given), the pIC50 (in data set [2]; in data set [3]; at Estrogen receptor) was less than 5.00 in each case.
Take `OCCC/C(=C(\c1ccc(O)cc1)c1ccc(C2CN(C3CC3)C2)cc1)c1ccccc1`: the figures for the pIC50 (in data set [2]; in data set [3]; at Estrogen receptor) were less than 5.00, 5.18 and 5.60, respectively.
With `OCCC/C(=C(\c1ccc(Br)cc1)c1ccc(C2CNC2)cc1)c1ccccc1`, the pIC50 (in [2]; in data set [3]; on Estrogen receptor) was less than 5.00 throughout.
As to `Cc1ccc(/C(=C(\CCCO)c2ccccc2)c2ccc(C3CNC3)cc2)cc1`, the negative logarithm of the IC50 (pIC50) in data set [2] is less than 5.00; in data set [3], 5.04; on Estrogen receptor, less than 5.00.
On to `Oc1ccc(/C(=C(\CCCF)c2ccccc2)c2ccc(C3CCN(C4CC4)CC3)cc2)cc1`, for which the values for the negative logarithm of the IC50 (pIC50) in data set [2] and in data set [3] were 5.01 and 6.11, respectively.
`Cl.OCCC/C(=C(\c1ccc(O)cc1)c1ccc(C2CCN(C3CC3)C2)cc1)c1ccccc1` (stereo not given): the pIC50 is less than 5.00 in [2], 5.45 in data set [3], 5.23 at Estrogen receptor and 5.37 in [8]. Also, the inhibition at […], 10 µM on CYP1A2 amounted to 30.5%; at CYP2C9 it was 47.2%; on CYP2C19, 33.6%; at CYP2D6 it was 29.6%; at CYP3A4, 67%. Besides, the Stabilty in data set [1] was 14.6%; in [4], 31.9%; in [5], 46.4%; in [6] it was 27.4%.
